Results published in the NIST ThermoML archive (doi:10.1016/j.jct.2010.08.019).
Values joined by “and” are separate entries in the source; they are usually repeats but may differ in a detail not shown here. Identical values can stand only once. ± gives the expanded uncertainty stated by the source.

Legend:
[1] = for surface tension liquid-gas: Wilhelmy-plate method; for viscosity / mass density: Liquid; for viscosity: Falling or rolling sphere viscometry; for mass density: Vibrating tube method
[2] = refractive index (Na D-line) (dimensionless); details: Liquid, Standard Abbe refractometry
[3] = refractive index (Na D-line) (dimensionless); xn = mol fraction of the nth substance listed; details: 101 kPa, Liquid, Standard Abbe refractometry
[4] = xn = mol fraction of the nth substance listed; details: for surface tension liquid-gas: Wilhelmy-plate method; for viscosity / mass density: 101 kPa, Liquid; for viscosity: Falling or rolling sphere viscometry; for mass density: Vibrating tube method

| SMILES | surface tension liquid-gas ([1]; 293.15 K) | viscosity ([1]; 293.15 K, 101 kPa) | mass density ([1]; 293.15 K, 101 kPa) | surface tension liquid-gas ([1]; 298.15 K) | viscosity ([1]; 298.15 K, 101.33 kPa) | mass density ([1]; 298.15 K, 101.33 kPa) | surface tension liquid-gas ([1]; 303.15 K) | viscosity ([1]; 303.15 K, 101 kPa) | mass density ([1]; 303.15 K, 101 kPa) | surface tension liquid-gas ([1]; 313.15 K) | viscosity ([1]; 313.15 K, 101 kPa) | mass density ([1]; 313.15 K, 101 kPa) | surface tension liquid-gas ([1]; 323.15 K) | viscosity ([1]; 323.15 K, 101 kPa) | mass density ([1]; 323.15 K, 101 kPa) | refractive index ([2]; 293.15 K, 101 kPa) | refractive index ([2]; 298.15 K, 101.33 kPa) | refractive index ([2]; 303.15 K, 101 kPa) | refractive index ([2]; 313.15 K, 101 kPa) | refractive index ([2]; 323.15 K, 101 kPa) | also measured |
| --- | --- | --- | --- | --- | --- | --- | --- | --- | --- | --- | --- | --- | --- | --- | --- | --- | --- | --- | --- | --- | --- |
| CC(C)CC(C)(C)C [2,2,4-trimethylpentane] | 18.8 ± 0.4 mN/m | 0.503 ± 0.009 mPa·s | 691.98 ± 0.18 kg/m3 | 18.3 ± 0.4 mN/m | 0.475 ± 0.009 mPa·s | 687.7 ± 0.2 kg/m3 | 17.9 ± 0.4 mN/m | 0.447 ± 0.009 mPa·s | 683.61 ± 0.18 kg/m3 | 16.9 ± 0.4 mN/m | 0.404 ± 0.009 mPa·s | 675.23 ± 0.18 kg/m3 | 16.2 ± 0.4 mN/m | 0.365 ± 0.009 mPa·s | 666.8 ± 0.19 kg/m3 | 1.39161 ± 0.00033 | 1.38906 ± 0.00033 | 1.3866 ± 0.00033 | 1.38143 ± 0.00033 | 1.37627 ± 0.00033 | – |
| CC(C)CC(C)(C)C [2,2,4-trimethylpentane] + C1CCOCC1 | – | – | – | – | – | – | – | – | – | – | – | – | – | – | – | – | – | – | – | – | refractive index ([3]; 293.15 K, x2 = 0): 1.39161 ± 0.00033; refractive index ([3]; 303.15 K, x2 = 0): 1.3866 ± 0.00033; refractive index ([3]; 313.15 K, x2 = 0): 1.38143 ± 0.00033; refractive index ([3]; 323.15 K, x2 = 0): 1.37627 ± 0.00033; surface tension liquid-gas ([4]; 293.15 K, x2 = 0): 18.8 ± 0.4 mN/m; viscosity ([4]; 293.15 K, x2 = 0): 0.503 ± 0.009 mPa·s; mass density ([4]; 293.15 K, x2 = 0): 691.98 ± 0.18 kg/m3; surface tension liquid-gas ([4]; 303.15 K, x2 = 0): 17.9 ± 0.4 mN/m; viscosity ([4]; 303.15 K, x2 = 0): 0.447 ± 0.009 mPa·s; mass density ([4]; 303.15 K, x2 = 0): 683.61 ± 0.18 kg/m3; surface tension liquid-gas ([4]; 313.15 K, x2 = 0): 16.9 ± 0.4 mN/m; viscosity ([4]; 313.15 K, x2 = 0): 0.404 ± 0.009 mPa·s; mass density ([4]; 313.15 K, x2 = 0): 675.23 ± 0.18 kg/m3; surface tension liquid-gas ([4]; 323.15 K, x2 = 0): 16.2 ± 0.4 mN/m; viscosity ([4]; 323.15 K, x2 = 0): 0.365 ± 0.009 mPa·s; mass density ([4]; 323.15 K, x2 = 0): 666.8 ± 0.19 kg/m3 |
| CC(C)O [propan-2-ol] | 21.3 ± 0.4 mN/m | 2.362 ± 0.02 mPa·s | 785.44 ± 0.15 kg/m3 | 20.9 ± 0.4 mN/m | 2.04 ± 0.02 mPa·s | 781.05 ± 0.15 kg/m3 | 20.4 ± 0.4 mN/m | 1.769 ± 0.016 mPa·s | 776.75 ± 0.15 kg/m3 | 19.6 ± 0.4 mN/m | 1.331 ± 0.013 mPa·s | 767.93 ± 0.15 kg/m3 | 18.8 ± 0.4 mN/m | 1.019 ± 0.012 mPa·s | 758.9 ± 0.16 kg/m3 | 1.37724 ± 0.00033 | 1.3752 ± 0.00033 | 1.37286 ± 0.00033 | 1.36852 ± 0.00033 | 1.36363 ± 0.00033 | – |
| CC(C)O [propan-2-ol] + C1CCOCC1 | – | – | – | – | – | – | – | – | – | – | – | – | – | – | – | – | – | – | – | – | refractive index ([3]; 293.15 K, x1 = 1): 1.37724 ± 0.00033; refractive index ([3]; 303.15 K, x1 = 1): 1.37286 ± 0.00033; refractive index ([3]; 313.15 K, x1 = 1): 1.36852 ± 0.00033; refractive index ([3]; 323.15 K, x1 = 1): 1.36363 ± 0.00033; surface tension liquid-gas ([4]; 293.15 K, x1 = 1): 21.3 ± 0.4 mN/m; viscosity ([4]; 293.15 K, x1 = 1): 2.362 ± 0.02 mPa·s; mass density ([4]; 293.15 K, x1 = 1): 785.44 ± 0.15 kg/m3; surface tension liquid-gas ([4]; 303.15 K, x1 = 1): 20.4 ± 0.4 mN/m; viscosity ([4]; 303.15 K, x1 = 1): 1.769 ± 0.016 mPa·s; mass density ([4]; 303.15 K, x1 = 1): 776.75 ± 0.15 kg/m3; surface tension liquid-gas ([4]; 313.15 K, x1 = 1): 19.6 ± 0.4 mN/m; viscosity ([4]; 313.15 K, x1 = 1): 1.331 ± 0.013 mPa·s; mass density ([4]; 313.15 K, x1 = 1): 767.93 ± 0.15 kg/m3; surface tension liquid-gas ([4]; 323.15 K, x1 = 1): 18.8 ± 0.4 mN/m; viscosity ([4]; 323.15 K, x1 = 1): 1.019 ± 0.012 mPa·s; mass density ([4]; 323.15 K, x1 = 1): 758.9 ± 0.16 kg/m3 |
| CC(C)O [propan-2-ol] + CC(C)CC(C)(C)C | – | – | – | – | – | – | – | – | – | – | – | – | – | – | – | – | – | – | – | – | refractive index ([3]; 293.15 K, x1 = 1): 1.37724 ± 0.00033; refractive index ([3]; 303.15 K, x1 = 1): 1.37286 ± 0.00033; refractive index ([3]; 313.15 K, x1 = 1): 1.36852 ± 0.00033; refractive index ([3]; 323.15 K, x1 = 1): 1.36363 ± 0.00033; surface tension liquid-gas ([4]; 293.15 K, x1 = 1): 21.3 ± 0.4 mN/m; viscosity ([4]; 293.15 K, x1 = 1): 2.362 ± 0.02 mPa·s; mass density ([4]; 293.15 K, x1 = 1): 785.44 ± 0.15 kg/m3; surface tension liquid-gas ([4]; 303.15 K, x1 = 1): 20.4 ± 0.4 mN/m; viscosity ([4]; 303.15 K, x1 = 1): 1.769 ± 0.016 mPa·s; mass density ([4]; 303.15 K, x1 = 1): 776.75 ± 0.15 kg/m3; surface tension liquid-gas ([4]; 313.15 K, x1 = 1): 19.6 ± 0.4 mN/m; viscosity ([4]; 313.15 K, x1 = 1): 1.331 ± 0.013 mPa·s; mass density ([4]; 313.15 K, x1 = 1): 767.93 ± 0.15 kg/m3; surface tension liquid-gas ([4]; 323.15 K, x1 = 1): 18.8 ± 0.4 mN/m; viscosity ([4]; 323.15 K, x1 = 1): 1.019 ± 0.012 mPa·s; mass density ([4]; 323.15 K, x1 = 1): 758.9 ± 0.16 kg/m3 |
| C1CCOCC1 [tetrahydropyran] | 27.5 ± 0.4 mN/m | 0.86 ± 0.011 mPa·s | 884.27 ± 0.23 kg/m3 | 27.2 ± 0.4 mN/m | 0.8 ± 0.01 mPa·s | 878.8 ± 0.2 kg/m3 | 26.2 ± 0.4 mN/m | 0.749 ± 0.01 mPa·s | 874.07 ± 0.23 kg/m3 | 25.1 ± 0.4 mN/m | 0.658 ± 0.01 mPa·s | 863.76 ± 0.47 kg/m3 | 23.8 ± 0.4 mN/m | 0.565 ± 0.009 mPa·s | 666.8 ± 0.83 kg/m3 and 853.46 ± 0.24 kg/m3 | 1.39161 ± 0.00037 and 1.42109 ± 0.00037 | 1.4186 ± 0.0004 | 1.3866 ± 0.00037 and 1.41599 ± 0.00037 | 1.38143 ± 0.00037 and 1.41092 ± 0.00037 | 1.37627 ± 0.00037 and 1.40554 ± 0.00037 | – |
